Reference: US12428455B2, “Dominant negative CEBPB and CEBPD proteins and methods of use for decreasing viability of neoplastic cells” (The Trustees of Columbia University in the City of New York, priority 2018, dated 2025)

Tests used:
[1] = test system: MDA-MB 231, HCT116, and A375 cells; assay: Peptide treatment after doxorubicin pre-treatment, cell number; assay type: cell-based; conditions: 100 nM, 24 hours
Procedure: Replicate cultures of MDA-MB 231, HCT116, and A375 cells were pretreated with 100 nM doxorubicin for 24 hours, and then treated with 1 μM, 3 μM, 10 μM, or 20 μM CP-dn-CEBPB and CP-dn-CEBPD peptides, maintained for 6 days, and then assessed for cell number. The bar graphs of FIGS. 31A (MDA-MB 231, CP-dn-CEBPB), 31C (MDA-MB 231, CP-dn-CEBPBD, 31E (HCT116, CP-dn-CEBPBD), 31G (HCT116, CP-dn-CEBPD), 31I (A375, CP-dn-CEBPBB), and 31K (A375, CP-dn-CEBPBD) show relative cell numbers for each condition as compared to untreated controls. The line graphs of FIGS. 31B (MDA-MB 231, CP-dn-CEBPB), 31D (MDA-MB 231, CP-dn-CEBPBD), 31F (HCT116, CP-dn-CEBPB), 31H (HCT116, CP-dn-CEBPD), 31J (A375, CP-dn-CEBPB), and 31L (A375, CP-dn-CEBPBD) show the response as normalized in each case so that 100 represents the relative number of surviving cells that received the indicated level of doxorubicin, but no peptide treatment.

[2] = test system: paclitaxel-resistant T98G cells; assay: Cell number, paclitaxel-resistant T98G cells; assay type: cell-based; conditions: 6 days; 0 μM to 50 μM peptide or 0 nM to 50 nM paclitaxel
Procedure: Replicate cultures of T98G wild type cells and paclitaxel-resistant T98G cells were treated with 0 nM to 50 nM paclitaxel or 0 μM to 50 μM CP-dn-CEBPB or CP-dn-CEBPD peptides, maintained for 6 days, and then assessed for cell number. Paclitaxel resistant T98G cells were inhibited by both CP-dn-CEBPB (FIG. 28A) and CP-dn-CEBPD (FIG. 28B), but, as expected were not inhibited by paclitaxel (FIG. 28C). This establishes that CP-dn-CEBPB and CP-dn-CEBPD may be effective against chemotherapy-resistant cells.

| SMILES | effect of doxorubicin pre-treatment on growth of the cancer cells [1] | inhibition of paclitaxel-resistant T98G cells (cell number) [2] |
| --- | --- | --- |
| COc1cccc2c1C(=O)c1c(O)c3c(c(O)c1C2=O)C[C@@](O)(C(=O)CO)C[C@@H]3O[C@H]1C[C@H](N)[C@H](O)[C@H](C)O1 [doxorubicin, reference compound] | inhibited grown of the cancer cells | – |
| CC(=O)O[C@H]1C(=O)[C@@]2(C)[C@H]([C@H](OC(=O)c3ccccc3)[C@]3(O)C[C@H](OC(=O)[C@H](O)[C@@H](NC(=O)c4ccccc4)c4ccccc4)C(C)=C1C3(C)C)[C@]1(OC(C)=O)CO[C@@H]1C[C@@H]2O [paclitaxel, reference compound] | – | not inhibited |
